The source of these data is paper PMC11944513, “Investigation on Human Carbonic Anhydrase IX and XII Inhibitory Activity and A549 Antiproliferative Activity of a New Class of Coumarinamides” (Pharmaceuticals, 2025).

Where only a bound is given, the exact number is not on record here.

The target in one series is h-CA II (Homo sapiens, UniProt P00918). Briefly: stopped-flow CO2 hydrase assay, h-CA II.
A further series addresses h-CA XII (Homo sapiens, UniProt O43570). Briefly: stopped-flow CO2 hydrase assay, h-CA XII.
Series [1] relates to A549 cells. Briefly: cytotoxicity assay (LDH test). The format is cell-based, human. The conditions noted are these: A549, 0–150 µM, 24 h. The protocol:
(§1) Cells were seeded at different densities according to the different experimental techniques performed (MTT assay and cell cycle analysis) and left to adhere for 24 h. Next, the medium was removed, and cells were treated with tested compounds, dissolved in dimethyl sulfoxide (DMSO) to achieve concentrations ranging from 0 µM (untreated control = CTRL) to 150 µM. The final DMSO concentration was kept below 0.3%. Cell viability was evaluated at up to 72 h post-treatment. Images were acquired 48 h after treatments by means of a light phase-contrast microscope equipped with a camera (Leica). Images were acquired and analyzed by the Leica Application Suite LAS EZ version 3.4 (Leica, Wetzlar, Germany).
To assess cytotoxicity in A549 cells after their treatment with the tested compounds, the amount of lactate dehydrogenase released into the culture medium was quantified using the CytoTox 96 non-radioactive cytotoxicity assay (Promega, Madison, WI, USA) according to the manufacturer’s instructions. Cell supernatants were collected from the same cultures processed for the MTT assay after 24 h of treatment and the optical density values obtained were normalized to those measured from the MTT assay.

A further series has as its target h-CA IX (Homo sapiens, UniProt Q16790). Briefly: stopped-flow CO2 hydrase assay, h-CA IX.
Series [2] concerns A549 cells. Briefly: cell cycle analysis (PI flow cytometry). The format is cell-based, human. The conditions noted are these: A549, 0–150 µM, 48 h; S phase cells increased vs untreated control. On the procedure:
as §1
[…] At each time point, cells were detached using StemPro™ Accutase™, pelleted by centrifugation, and fixed overnight at 4 °C in 70% v/v cold ethanol. After fixation, cells were processed as described elsewhere. The PI fluorescence was detected by a flow cytometer equipped with a 488 nm laser (CytoFlex flow cytometer, Beckman Coulter, CA, USA) in the FL-3 channel. A minimum of 10,000 events/sample were acquired and analyzed with the CytExpert Software, version 2.3 (Beckman Coulter, CA, USA), and the percentages of cells in the G1, S, or G2 phase of the cell cycle were calculated using the ModFit LT™ Software, version 5.0 (Verity Software House, Topsham, ME, USA).

The next series has as its target h-CA I (Homo sapiens, UniProt P00915). Put plainly: stopped-flow CO2 hydrase assay, h-CA I.
The test system of series [3] is normal bronchial epithelial cells (BEAS-2B). Briefly: cell viability (MTT assay), BEAS-2B. It is filed as cell-based, human. The conditions noted are these: Homo sapiens, BEAS-2B, 48 h exposure, nonlinear regression, predictive estimates. The protocol: Human bronchial epithelial (BEAS-2B; CRL-3588) and human lung carcinoma (A549; CCL-185) cell lines were obtained from ATCC®. BEAS and A549 cells were maintained in complete RPMI 1640 (Merck, Darmstadt, Germany) at 37 °C and 5% CO2. The medium was supplemented with 10% heat-inactivated fetal bovine serum (FBS), 1% penicillin/streptomycin and 1% sodium pyruvate.
as §1
(§2) BEAS and A549 cells were seeded in 96-well culture-treated plates (Falcon®, Corning Incorporated, Brooklyn, NY, USA) at a density of 0.5 × 10^4 cells/well. Untreated cells were set as the experimental control, representing 100% of cell viability. Exposure times varied from 24 up to 72 h. At the established time points (24, 48 and 72 h), the exposure medium was replaced with fresh medium containing 0.5 mg/mL 3-(4,5-dimethylthiazol-2-yl)-2,5-diphenyltetrazolium bromide (MTT) (Merck, Darmstadt, Germany) and processed as previously reported. The optical density in each well was measured at a wavelength of 540 nm using a spectrophotometer (Thermo Fisher Scientific, Waltham, MA, USA). Each experiment was performed in triplicate per experimental conditions (n = 3).

The subject of series [4] is bronchial adenocarcinoma cells (A549). Briefly: cell viability (MTT assay), A549. It is filed as cell-based, human. On the procedure: The medium was supplemented with 10% heat-inactivated fetal bovine serum (FBS), 1% penicillin/streptomycin and 1% sodium pyruvate.
Cells were seeded at different densities according to the different experimental techniques performed (MTT assay and cell cycle analysis) and left to adhere for 24 h. […] The final DMSO concentration was kept below 0.3%. Cell viability was evaluated at up to 72 h post-treatment. Images were acquired 48 h after treatments by means of a light phase-contrast microscope equipped with a camera (Leica). Images were acquired and analyzed by the Leica Application Suite LAS EZ version 3.4 (Leica, Wetzlar, Germany).
as §2

Chain of h-CA I (P00915 whole entry): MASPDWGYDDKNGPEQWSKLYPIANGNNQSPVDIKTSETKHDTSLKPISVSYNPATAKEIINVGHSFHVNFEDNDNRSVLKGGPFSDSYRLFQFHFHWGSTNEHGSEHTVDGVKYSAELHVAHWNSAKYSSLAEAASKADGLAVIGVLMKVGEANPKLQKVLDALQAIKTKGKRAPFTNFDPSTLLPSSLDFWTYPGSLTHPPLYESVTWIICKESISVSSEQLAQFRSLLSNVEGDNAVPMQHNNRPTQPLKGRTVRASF
Chain of h-CA XII (O43570 25-354): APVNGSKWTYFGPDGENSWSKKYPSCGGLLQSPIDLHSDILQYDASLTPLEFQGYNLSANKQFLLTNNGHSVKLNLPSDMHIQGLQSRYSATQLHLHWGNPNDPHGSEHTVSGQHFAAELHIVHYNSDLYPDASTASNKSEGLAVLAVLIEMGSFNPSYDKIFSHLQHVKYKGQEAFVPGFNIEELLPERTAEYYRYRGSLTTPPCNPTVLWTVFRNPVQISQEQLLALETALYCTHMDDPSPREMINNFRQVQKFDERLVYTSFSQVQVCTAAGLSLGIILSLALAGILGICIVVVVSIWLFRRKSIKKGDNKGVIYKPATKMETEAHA

Regarding `Cc1ccc(N2CCN(C(=O)c3cc4ccc(O)cc4oc3=O)CC2)cc1C` [Compound 38, 3-(4-(3,4-Dimethylphenyl)piperazine-1-Carbonyl)-7-Hydroxy-2H-Chromen-2-One], the Ki on h-CA II was > 100 µM; on h-CA XII, 9.2 µM; at h-CA IX it was 70.3 µM; at h-CA I it was > 100 µM. For the same compound, in the series on A549 cells [1], the “cytotoxicity occurrence (LDH release)” value is listed as “None of the compounds administered displayed cytotoxicity”. Also, the “arrest of cell cycle progression” value with A549 cells [2] is “able to arrest cells at the G1/S checkpoint”. Also, the IC50 is 187.4 ± 1.27 µM in series [3] and 50 ± 1.28 µM in series [4] (Homo sapiens, A549, 48 h exposure, nonlinear regression, predictive estimates). Also, the “SI (selectivity index, IC50 BEAS/IC50 A549 ratio)” value in series [4] (48 h) was 3.747.
